pIC50: −log10 of the molar value.
These compounds were tested against T1, FLT3 (Homo sapiens, UniProt P36888) (assay: Reaction Biology NanoBRET target engagement assay, FLT3). Details: transfected HEK-293 cells.
T1 sequence (P36888 27-993): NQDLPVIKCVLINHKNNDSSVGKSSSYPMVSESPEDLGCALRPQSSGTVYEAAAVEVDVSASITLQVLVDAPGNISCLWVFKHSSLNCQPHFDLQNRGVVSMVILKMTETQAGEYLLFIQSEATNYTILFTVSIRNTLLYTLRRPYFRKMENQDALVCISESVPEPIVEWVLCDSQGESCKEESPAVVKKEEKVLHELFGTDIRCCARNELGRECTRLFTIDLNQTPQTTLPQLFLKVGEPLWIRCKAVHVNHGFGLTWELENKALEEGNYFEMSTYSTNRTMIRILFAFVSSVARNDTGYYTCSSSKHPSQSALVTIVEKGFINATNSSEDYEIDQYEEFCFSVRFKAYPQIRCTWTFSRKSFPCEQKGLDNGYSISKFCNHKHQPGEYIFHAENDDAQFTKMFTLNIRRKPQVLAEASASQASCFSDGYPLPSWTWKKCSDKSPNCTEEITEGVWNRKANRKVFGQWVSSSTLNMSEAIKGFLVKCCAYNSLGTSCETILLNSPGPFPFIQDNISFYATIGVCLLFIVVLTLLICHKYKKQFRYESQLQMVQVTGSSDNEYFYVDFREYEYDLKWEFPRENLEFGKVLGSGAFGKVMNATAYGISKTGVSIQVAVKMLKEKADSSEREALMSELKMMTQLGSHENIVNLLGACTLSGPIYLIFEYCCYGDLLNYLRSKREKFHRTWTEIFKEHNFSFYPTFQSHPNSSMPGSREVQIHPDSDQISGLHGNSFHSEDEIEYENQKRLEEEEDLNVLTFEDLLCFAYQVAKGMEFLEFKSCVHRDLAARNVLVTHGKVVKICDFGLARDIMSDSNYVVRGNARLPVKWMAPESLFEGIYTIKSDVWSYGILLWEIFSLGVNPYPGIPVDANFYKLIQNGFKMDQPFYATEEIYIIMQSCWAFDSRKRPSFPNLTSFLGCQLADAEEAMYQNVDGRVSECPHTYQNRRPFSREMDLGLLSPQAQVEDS
Type: cell-based
Text: The NanoBRET assay measures kinase engagement in real time in the context of the intact cell. Unlike the previously described biochemical kinase assay methodologies in Examples 26-27, the NanoBRET assay measures the binding and activity characteristics under equilibrium conditions using full-length kinases in the presence of cellular concentrations of ATP in live, uncompromised cells. As such, the assay provides a more relevant assessment of kinase potency and selectivity that would be expected to be observed in the native cellular environment, where potency is often considerably lower than that observed in the isolated biochemical assays (Vasta, J. D. et al., (2018) Cell Chem. Biol. 25, 206-214). The assay uses a Kinase-NanoLuc® fusion vector expressing a kinase protein to which a luciferase tag has been added, a cell-permeant fluorescent NanoBRET™ tracer, a NanoLuc® substrate, and an extracellular NanoLuc® inhibitor. Upon expression of the luciferase-tagged kinase, cells will produce a strong BRET signal only in the presence of the NanoBRET™ tracer. The extracellular NanoLuc® inhibitor ensures that the BRET signal observed emanates only from live cells. Because the BRET signal has tight distance constraints, addition of the test compound will decrease the BRET signal if the compound competes with the NanoBRET™ tracer for binding to the kinase domain. Under the appropriate tracer conditions established by the manufacturer, quantitative intracellular affinity and relative potency can then be determined using Mass Action model equations.
HEK-293 cells were purchased from ATCC. FuGENEHD Transfection Reagent, Kinase-NanoLucfusion plasmids, Transfection Carrier DNA, NanoBRETTracers and dilution buffer, NanoBRETNano-Glo Substrate, Extracellular NanoLucInhibitor were obtained from Promega.
Assays were conducted following Promega assay protocol with some modifications. HEK-293 Cells were transiently transfected with Kinase-NanoLucFusion Vector DNA by FuGENEHD Transfection Reagent. Testing compounds were delivered into 384 well assay plate by Echo 550 (Labcytelnc, Sunnyvale, CA). Transfected cells were harvested and mixed with NanoBRETTracer Reagent and dispensed into 384 well plates and incubated at 37° C. in 5% CO2 cell culture incubator for 1 hour. The NanoBRETNano-Glo Substrate plus Extracellular NanoLucInhibitor Solution were added into the wells of the assay plate and incubated for 2-3 minutes at room temperature. The donor emission wavelength (460 nm) and acceptor emission wavelength (600 nm) were measured in the EnVisionplate reader. The BRET Ratios were calculated. BRET Ratio=[(Acceptor sample÷Donor sample)−(Acceptor no-tracer control÷Donor no-tracer control)]. The IC50 values of compounds were calculated with Prism GraphPad program.
NanoBRET™ Target Engagement Assay Protocol
1. Transient Transfection of HEK-293 Cells NanoLuc® Fusion Vector DNA
• 1). Cultivate HEK-293 cells (70-80% confluence) appropriately prior to assay. Trypsinize and collect HEK-293 cells. • 2). Prepare lipid: DNA complexes as follows: • a. Prepare a […] solution of DNA in Opti-MEM without serum that consists of the following ratios of carrier DNA and DNA encoding NanoLuc® fusion. 9.0 µg/mL of Transfection Carrier DNA, […] of NanoLuc fusion vector DNA and 1 mL of Opti-MEM without phenol red. Mix thoroughly. • b. Add 30 l of FuGENE HD Transfection Reagent into each milliliter of DNA mixture to form lipid: DNA complex. • c. Mix by inversion 10 times. • d. Incubate at ambient temperature for 20 minutes to allow complexes to form. • 3). In a sterile, conical tube, mix 1 part of lipid: DNA complex with 20 parts of HEK-293 cells in suspension. Mix gently by inversion 5 times. • 4). Dispense cells+lipid: DNA complex into a sterile tissue culture dish and incubate for 22-24 hours. 2. Addition of Test Compounds (dry plate shooting)
Each test compound is delivered from the compound source plate to the wells of 384-well white NBS plate by Echo 550.
3. […]
A pIC50 of 6.56 was found for `CC(O)(c1cn2c(-c3cccc(N[C@H]4CNC[C@@H]4F)n3)cnc2cn1)C(F)(F)F` (single isomer, unassigned) [Compound 77] in this work.
A pIC50 of 7.40 was found for `CC(O)(c1cn2c(-c3cccc(N[C@H]4CNC[C@@H]4F)n3)cnc2cn1)C(F)(F)F` (single isomer, unassigned) [Compound 78] in this work.
A pIC50 of 7.03 was found for `CC(O)(c1cn2c(-c3cccc(N[C@H]4CNCC[C@@H]4F)n3)cnc2cn1)C(F)(F)F` (single isomer, unassigned) [Compound 80] in this work.
A pIC50 of 7.82 was found for `CC(O)(c1cn2c(-c3cccc(N[C@@H]4CCCNC4)n3)cnc2cn1)C(F)(F)F` (single isomer, unassigned) [Compound 81] in this work.
A pIC50 of 7.40 was found for `CC(O)(c1cn2c(-c3cccc(N[C@H]4CNCC[C@@H]4F)n3)cnc2cn1)C(F)(F)F` (single isomer, unassigned) [Compound 82] in this work.
A pIC50 of 8.22 was found for `CC1(c2cn3c(-c4cccc(N[C@H]5CNC[C@@H]5F)n4)cnc3cn2)CC1` [Compound 1, N-((3S,4S)-4-fluoropyrrolidin-3-yl)-6-(6-(1-methylcyclopropyl)imidazo[1,2-a]pyrazin-3-yl)pyridin-2-amine] in this work.
A pIC50 of 8.52 was found for `CC1(c2cn3c(-c4cccc(N[C@@H]5CCNC5)n4)cnc3cn2)CC1` [Compound 3, (R)-6-(6-(1-methylcyclopropyl)imidazo[1,2-a]pyrazin-3-yl)-N-(pyrrolidin-3-yl)pyridin-2-amine] in this work.
A pIC50 of over 9.30 was found for `CC1(c2cn3c(-c4cccc(N[C@H]5CNCC56CC6)n4)cnc3cn2)CC1` [Compound 5, (R)-N-(6-(6-(1-methylcyclopropyl)imidazo[1,2-a]pyrazin-3-yl)pyridin-2-yl)-5-azaspiro[2.4]heptan-7-amine] in this work.
A pIC50 of 7.68 was found for `FC(F)c1cn2c(-c3cccc(N[C@H]4CNC[C@@H]4F)n3)cnc2cn1` [Compound 16, 6-(6-(difluoromethyl)imidazo[1,2-a]pyrazin-3-yl)-N-((3S,4S)-4-fluoropyrrolidin-3-yl)pyridin-2-amine] in this work.
A pIC50 of 8.22 was found for `FC(F)c1cn2c(-c3cccc(N[C@H]4CNCC[C@@H]4F)n3)cnc2cn1` [Compound 25, 6-(6-(difluoromethyl)imidazo[1,2-a]pyrazin-3-yl)-N-((3S,4S)-4-fluoropiperidin-3-yl)pyridin-2-amine] in this work.
A pIC50 of 6.87 was found for `CC(C)(O)c1cn2c(-c3cccc(N[C@H]4CNCC[C@@H]4F)n3)cnc2cn1` [Compound 31, 2-(3-(6-(((3S,4S)-4-fluoropiperidin-3-yl)amino)pyridin-2-yl)imidazo[1,2-a]pyrazin-6-yl)propan-2-ol] in this work.
A pIC50 of 5.82 was found for `CC(C)(O)c1cn2c(-c3nc(N[C@H]4CNC[C@@H]4F)c(F)cc3F)cnc2cn1` [Compound 33, 2-(3-(3,5-difluoro-6-(((3S,4S)-4-fluoropyrrolidin-3-yl)amino)pyridin-2-yl)imidazo[1,2-a]pyrazin-6-yl)propan-2-ol] in this work.
A pIC50 of 6.75 was found for `CC(C)(O)c1cn2c(-c3nc(N[C@@H]4CCCNC4)c(F)cc3F)cnc2cn1` [Compound 34, (R)-2-(3-(3,5-difluoro-6-(piperidin-3-ylamino)pyridin-2-yl)imidazo[1,2-a]pyrazin-6-yl)propan-2-ol] in this work.
A pIC50 of 6.67 was found for `CC(C)(O)c1cn2c(-c3nc(N[C@H]4CNCC[C@@H]4F)c(F)cc3F)cnc2cn1` [Compound 35, 2-(3-(3,5-difluoro-6-(((3S,4S)-4-fluoropiperidin-3-yl)amino)pyridin-2-yl)imidazo[1,2-a]pyrazin-6-yl)propan-2-ol] in this work.
A pIC50 of 7.92 was found for `FC(F)(F)COc1cn2c(-c3cccc(N[C@@H]4CCNC4)n3)cnc2cn1` [Compound 38, (R)-N-(pyrrolidin-3-yl)-6-(6-(2,2,2-trifluoroethoxy)imidazo[1,2-a]pyrazin-3-yl)pyridin-2-amine] in this work.
A pIC50 of 7.14 was found for `Cn1cc(-c2cn3c(-c4cccc(N[C@@H]5CCCNC5)n4)cnc3cn2)cn1` [Compound 43, (R)-6-(6-(1-methyl-1H-pyrazol-4-yl)imidazo[1,2-a]pyrazin-3-yl)-N-(piperidin-3-yl)pyridin-2-amine] in this work.
A pIC50 of 8.00 was found for `F[C@H]1CNC[C@@H]1Nc1cccc(-c2cnc3cnc(C4CC4)cn23)n1` [Compound 50, 6-(6-cyclopropylimidazo[1,2-a]pyrazin-3-yl)-N-((3S,4S)-4-fluoropyrrolidin-3-yl)pyridin-2-amine] in this work.
A pIC50 of 8.40 was found for `F[C@H]1CCNC[C@@H]1Nc1cccc(-c2cnc3cnc(C4CC4)cn23)n1` [Compound 51, 6-(6-cyclopropylimidazo[1,2-a]pyrazin-3-yl)-N-((3S,4S)-4-fluoropiperidin-3-yl)pyridin-2-amine] in this work.
A pIC50 of 7.28 was found for `FC(F)COc1cn2c(-c3cccc(N[C@H]4CNC[C@@H]4F)n3)cnc2cn1` [Compound 58, 6-(6-(2,2-difluoroethoxy)imidazo[1,2-a]pyrazin-3-yl)-N-((3S,4S)-4-fluoropyrrolidin-3-yl)pyridin-2-amine] in this work.
A pIC50 of 9.05 was found for `O=S1(=O)CCCN1c1cn2c(-c3cccc(N[C@H]4CNCC[C@@H]4F)n3)cnc2cn1` [Compound 97, 2-(3-(6-(((3S,4S)-4-fluoropiperidin-3-yl)amino)pyridin-2-yl)imidazo[1,2-a]pyrazin-6-yl)isothiazolidine 1,1-dioxide] in this work.
A pIC50 of 9.05 was found for `O=C1CCCN1c1cn2c(-c3nc(N[C@H]4CNCC[C@@H]4F)c(F)cc3F)cnc2cn1` [Compound 107, 1-[3-[3,5-difluoro-6-[[(3S,4S)-4-fluoro-3-piperidyl]amino]-2-pyridyl]imidazo[1,2-a]pyrazin-6-yl]pyrrolidin-2-one] in this work.
A pIC50 of 7.51 was found for `O=C1CCCN1c1cn2c(-c3nc(N[C@@H]4CCCNC4)c(F)cc3F)cnc2cn1` [Compound 108, (R)-1-(3-(3,5-difluoro-6-(piperidin-3-ylamino)pyridin-2-yl)imidazo[1,2-a]pyrazin-6-yl)pyrrolidin-2-one] in this work.
A pIC50 of 7.80 was found for `O=C1CCCN1c1cn2c(-c3cccc(N[C@H]4CNCC[C@@H]4F)n3)cnc2cn1` [Compound 119, 1-(3-(6-(((3S,4S)-4-fluoropiperidin-3-yl)amino)pyridin-2-yl)imidazo[1,2-a]pyrazin-6-yl)pyrrolidin-2-one] in this work.
A pIC50 of 7.68 was found for `O=C1CCCN1c1cn2c(-c3cccc(N[C@H]4CNC[C@@H]4F)n3)cnc2cn1` [Compound 121, 1-(3-(6-(((3S,4S)-4-fluoropyrrolidin-3-yl)amino)pyridin-2-yl)imidazo[1,2-a]pyrazin-6-yl)pyrrolidin-2-one] in this work.

From patent US12612410B2 (CHILDREN'S HOSPITAL MEDICAL CENTER, priority 2020, dated 2026)
